Measured values reported in the METLIN SMRT retention time set (Domingo-Almenara et al. 2019).

Assay: gradient 5% acetonitrile 3 min, to 50% in 2 min, to 85% in 15 min, held 3 min, 100 µL/min
Settings: column: Zorbax Extend-C18 2.1 x 50 mm; eluents: water / acetonitrile, 0.1% formic acid
How it was run: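 Retention times come from adduct peaks that were picked computationally and then checked by hand. The standards, pure and pooled in mixtures of ~100 molecules, were run on a Zorbax Extend-C18 column (2.1 × 50 mm, 1.8 μm) at 100 μL/min with water and acetonitrile, each with 0.1% formic acid. Detection was by quadrupole time-of-flight mass spectrometry in positive and negative ionization mode, with a dead volume of 40 μL and a dwell volume of 900 μL.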

| Structure (SMILES) | RP-LC retention time [s] |
| --- | --- |
| Cc1ccc2c(Nc3cc(F)ccc3C)c(-c3nc(C)no3)cnc2n1 | 784 |
| C=CCNC(=O)c1nnn(Cc2ccc(C)cc2)c1-n1cccc1 | 966 |
| Cc1cnc(C(=O)NC2C[C@H]3CC[C@@H](C2)N3C(=O)c2ccoc2)cn1 (some centres undefined) | 601 |
| O=C(Nc1cncc(-c2nc3ccccc3o2)c1)c1cccc(Cl)c1 | 1010 |
| CCCC(=O)Nc1nc(-c2ccc(OC)cc2)c(C)s1 | 956 |
| C[C@@H]1CN(CC(=O)Nc2ccc3c(c2)Cc2cccc(-c4cc(=O)cc(N5CCOCC5)o4)c2S3)C[C@H](C)O1 | 748 |
| CCC1(C(=O)Nc2cc(OC)ccc2OC)CCCCC(=O)N1 (centres undefined) | 722 |
| O=c1c2cc(-c3ccccc3Cl)nn2cnn1Cc1nc(-c2ccccc2)no1 | 1110 |
| Cc1cc(C(=O)CSc2nnnn2-c2ccccc2)c(C)n1Cc1ccco1 | 969 |
| O=C(c1ccc(CS(=O)c2ccccc2Cl)o1)N1CCN(c2ccccn2)CC1 (centres undefined) | 604 |
| CCc1nnc(-c2cn(CC(=O)NCCCc3ccccc3)c3ccccc23)o1 | 877 |
| Cc1ccc(Cn2cc(-c3noc(C4CCCC4)n3)nn2)cc1 | 1070 |
| O=C(CCc1ccc2[nH]ccc2c1)N1CCN(c2ccc(F)cc2)CC1 | 865 |
| COc1ccc(NC(=O)N2CCN(c3cnn4c(C)nnc4c3)CC2)c(OC)c1 | 577 |
| CCS(=O)(=O)N1CCCc2cc(C(=O)Nc3ccc4c(c3)OCCO4)ccc21 | 858 |
| CC(=O)c1ccc(C)cc1OC(=O)c1cccc2nc(C)oc12 | 661 |
| O=C(c1cccc(Br)c1)N1CCC(n2c(-c3ccco3)nc3cccnc32)C1 (centres undefined) | 814 |
| COCCCNC(=O)c1cc(-c2ccc(OC)cc2)nc2n[nH]c(-c3ccc(OC)cc3)c12 | 1140 |
| Cc1oc(C2CCN(S(=O)(=O)c3ccc(F)cc3)CC2)nc1C(=O)N1CCCC1 | 890 |
| CCOc1ccc(NC(=O)N2CCC(c3nc(C(=O)N4CCCC4)c(C)o3)CC2)cc1 | 764 |
| COc1ccc(S(=O)(=O)N2CCCn3ccnc3C2c2cnn(C)c2)cc1Cl (centres undefined) | 618 |
| CCC(C)NC(=O)c1cc(C)nc2ccc(F)cc12 (centres undefined) | 680 |
| Fc1ccc(-c2nc(-c3ccc4nncn4c3)no2)c(Cl)c1 | 849 |

| Structure (SMILES) | RP-LC retention time [s] |
| --- | --- |
| CCNC(=O)C1CCCN(c2nc3ncn(CC(=O)Nc4ccc(C)c(Cl)c4)c(=O)c3s2)C1 (centres undefined) | 738 |
| CN(C)CCn1nnc2cc(-c3noc(-c4cccc(Cl)c4)n3)ccc21 | 708 |
| COc1cc(Cl)ccc1C(=O)N(CC1CCOC1)C1CC1 (centres undefined) | 803 |
| CCOc1cccc(-c2noc(Cc3nnc(-c4cccc(F)c4)o3)n2)c1 | 1070 |
| CN1C(=O)c2cc(C(=O)NCCc3ccccc3)nn2CC1(C)C(=O)NC1CCCC1 (centres undefined) | 761 |
| O=C(Nc1cccc(-c2nnc3n2CCCC3)c1)c1ccco1 | 640 |
| CCc1ccc(OCc2nc(CCN(C)C(=O)Nc3ccc(OC)c(OC)c3)no2)cc1 | 856 |
| Cc1cc(SCC(=O)Nc2nc(-c3ccccc3)cs2)nc(C)n1 | 841 |
| CCc1noc(NC(C)=O)c1-c1ccc(C)c(S(=O)(=O)N2CCN(c3ccccc3F)CC2)c1 | 723 |
| CN(CC1CCOC1)C(=O)c1cccc(Cl)c1 (centres undefined) | 672 |
| COc1cccc(-c2noc(Cn3c(=O)n(-c4ccc(F)cc4)c(=O)c4sccc43)n2)c1 | 952 |
| Cn1c(N2CCCC(C(=O)NCc3cccs3)C2)cc(=O)n(C)c1=O (centres undefined) | 650 |
| Cc1cc2c(cc1NC(=O)c1ccco1)n(C)c(=O)c(=O)n2C | 614 |
| Cc1cc(C)cc(NC(=O)C2CCN(S(=O)(=O)c3c(C)nn(-c4ccccc4)c3C)CC2)c1 | 1060 |
| CSc1ccc(-c2nc3ncccn3c2Nc2cccc(Cl)c2C)cc1 | 968 |
| CCCCN1C(=O)C(C)(C(=O)NCc2cc(F)cc(F)c2)Oc2cccnc21 (centres undefined) | 1020 |
| COc1cccc(NC(=O)C2CCc3nc(N4CCCCC4)ncc3C2)c1 (centres undefined) | 782 |
| COc1ccc(OC)c(NC(=O)N2CCc3c(c(C(=O)N4CCCC4)nn3C)C2)c1 | 718 |
| Cc1cnc(C2CN(Cc3cccc(F)c3)C2)n1Cc1ccccc1 | 595 |
| CCC(CC)NC(=O)C1CC(=O)N(CCc2c[nH]c3ccc(Cl)cc23)C1 (centres undefined) | 796 |
| Cc1nnc(NC(=O)c2cn(Cc3cccc(F)c3)nc2OCc2cccc(F)c2)s1 | 935 |
| O=C(Nc1ccc(F)cc1F)C1CCN(S(=O)(=O)c2cc(-c3noc(C4CC4)n3)cs2)CC1 | 997 |
| O=S(=O)(c1cccnc1)N1CCC(c2ccccc2)C1 (centres undefined) | 773 |

| Structure (SMILES) | RP-LC retention time [s] |
| --- | --- |
| CC1CCN(S(=O)(=O)c2ccc(-c3nnc(C(=O)NCCc4ccccc4)o3)cc2)CC1 | 1100 |
| CCNC(=O)C1CCCN(c2nc3ncn(CC(=O)Nc4ccc(F)c(Cl)c4)c(=O)c3s2)C1 (centres undefined) | 698 |
| Cc1cnc(C2CC2)n1C1CCCN(S(=O)(=O)c2ccccc2)C1 (centres undefined) | 654 |
| Fc1ccc(-c2nc(-c3ccc(-n4cccn4)nc3)no2)cc1F | 1070 |
| Cn1c(=O)c2cc(C(=O)Nc3ccc4c(c3)OCCO4)cnc2n(-c2ccc(F)cc2)c1=O | 856 |
| Cc1cccc(NC(=O)COc2ccc(-c3cnc4ccccc4n3)cc2)n1 | 911 |
| COCCN(Cc1ccc(Cl)cc1)Cc1cc(=O)n2ccc(C)cc2n1 | 657 |
| Cn1nc(C(=O)N2C[C@@H]3C[C@H](NC(=O)c4cccs4)[C@H]2C3)c2ccccc21 | 778 |
| CCOC(=O)C1CCN(C(=O)c2ccc(-c3csc(C4CC4)n3)cc2)CC1 | 961 |
| N#Cc1ccc2c(c1)N(CCCN1CCC(O)CC1)c1ccccc1S2 | 743 |
| O=C(Nc1nc(-c2ccc(-c3ccccc3)cc2)cs1)C1CCCC1 | 1260 |
| CC(C)NC(=O)c1ccccc1OCC1CCCN(C2CCCC2)C1 (centres undefined) | 635 |
| Cc1scc2nc(C(=O)NC(C)C)nc(N(C)C)c12 | 581 |
| Cc1cccc(-n2ncc(C(N)=O)c2-n2cccc2)c1 | 775 |
| C=CCn1c(SCCC(=O)O)nnc1-c1cccs1 | 616 |
| CCn1cc(S(=O)(=O)N2CCCC2c2nncn2Cc2ccncc2)cn1 (centres undefined) | 553 |
| CCC1CN(C(=O)N2CCC(C(=O)NCCCN3CCOCC3)CC2)c2ccccc2O1 (centres undefined) | 632 |
| CN(C)S(=O)(=O)c1cc(-c2nnc(-c3ccc(F)cc3)o2)ccc1Cl | 991 |
| Cc1ccc2c(c1)C(C)(C)C(=O)N2CC(=O)N1CCN(c2ncccn2)CC1 | 773 |
| Fc1ccc(-c2nc(-c3cccc(-c4ccn[nH]4)c3)no2)c(F)c1 | 992 |
| CC(C)CNC(=O)CCC(=O)N1c2ccccc2NC2=C(C(=O)CC(C)(C)C2)C1c1ccco1 (centres undefined) | 743 |
| O=C(C1CC1)N1CCc2sc(S(=O)(=O)NCc3ccccc3)cc2C1 | 795 |
| Cc1cccc(-n2c(=O)c3c(cc(C)n3C)n(CC(=O)Nc3cccc(C(C)C)c3)c2=O)c1 | 626 |

| Structure (SMILES) | RP-LC retention time [s] |
| --- | --- |
| CCOC(=O)c1cccc(NC(=O)NC2CCN(c3ccccc3)C2=O)c1 (centres undefined) | 683 |
| c1cc(-c2nnc3sc(-c4csc5c4CCCC5)nn23)ccn1 | 993 |
| Cc1ccc(S(=O)(=O)Nc2ccc3c(c2)CCC(=O)N3CC(C)C)c(C)c1 | 945 |
| O=C([C@@H]1C[C@H](F)CN1S(=O)(=O)c1ccc(F)c(Cl)c1)N1CCCCC1 | 875 |
| Cc1ccc(C)c(N2CCN(C(=O)c3cc(-c4ccncc4)cn3C)CC2)c1 | 710 |
| COc1cccc(CNC(=O)NCCc2cn(C)c3ncccc23)c1 | 642 |
| COc1ccc(-c2noc(C3CC(=O)N(c4ccc(OC)c(Cl)c4)C3)n2)c(OC)c1 (centres undefined) | 1010 |
| COCCOC1CCN(S(=O)(=O)Cc2ccccc2F)CC1 | 809 |
| Cc1nn(-c2ccc(C(=O)N3CCN(c4ccccn4)CC3)cc2)c2c1C(=O)CCC2 | 574 |
| CCOCC(=O)N1CCCC(c2nc(CNC(=O)C(C)C)cs2)C1 (centres undefined) | 625 |
| Cc1ccc(C)c(CS(=O)(=O)N2CCC(CN3CCCC(C)C3)CC2)c1 (centres undefined) | 723 |
| Cc1cc(N2CCN(C)CC2)n2nc(CN3CCN(c4ccc(Cl)cc4)CC3)nc2n1 | 572 |
| NC(=O)C1CCN(C(=O)c2ccc(CN3C(=O)CCn4nc(-c5cccc(Cl)c5)cc43)cc2)CC1 | 700 |
| COC(=O)C1=CN(c2ccc(F)cc2C)c2cc(F)ccc2S1(=O)=O | 895 |
| Cn1c(=O)c(N2CCN(C(=O)c3ccccc3F)CC2)nc2ccccc21 | 864 |
| Cc1ccc(S(=O)(=O)NCc2c(-c3ccccc3)nc3sc(C)nn23)c(C)c1 | 922 |
| CCSc1nccc2c1ccn2CC(=O)NCc1ccc(OC)cc1OC | 651 |
| COc1ccc(CCNC(=O)CN2C(=O)NC3(CCC(C)CC3)C2=O)cc1OC (centres undefined) | 740 |
| Cc1ccc(S(=O)(=O)N2CC3CN(C(=O)COCc4ccccc4)CC(C2)O3)cc1 | 849 |
| Cc1cnc(C2CC2)n1CCNC(=O)C1CC=CC1 | 562 |
